# Reference: the METLIN SMRT retention time set (Domingo-Almenara et al. 2019)
# Test: gradient 5% acetonitrile 3 min, to 50% in 2 min, to 85% in 15 min, held 3 min, 100 µL/min
# Conditions: column: Zorbax Extend-C18 2.1 x 50 mm; eluents: water / acetonitrile, 0.1% formic acid
# In short: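 Over 3 months, pure standards in mixtures of ~100 molecules were run by HPLC coupled to a quadrupole time-of-flight mass spectrometer in positive and negative ionization mode. The column was a Zorbax Extend-C18 (2.1 × 50 mm, 1.8 μm) at 100 μL/min, eluted with water and acetonitrile each holding 0.1% formic acid, with 40 μL dead and 900 μL dwell volumes. Retention time was determined from adduct peaks chosen by software and checked manually.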
row,RP-LC retention time,SMILES
1,828 s,COc1ccc(-c2nc3cc(C)ccn3c2NC(=O)C(C)(C)Oc2ccc(Cl)cc2)cc1
2,650 s,CC(C)N1CCC2(CC1)CN(C(=O)NCc1ccco1)Cc1ccccc1O2
3,861 s,CCOC(=O)c1ccc(N2C=C(C(=O)OC)S(=O)(=O)c3cc(F)ccc32)cc1
4,1110 s,Cc1cc(-c2csc(S(=O)(=O)N(Cc3ccco3)C3CCCC3)c2)on1
5,870 s,CCS(=O)(=O)N1CCCc2cc(C(=O)NC(C)c3ccccc3)ccc21 (centres undefined)
6,647 s,Cn1c(COc2ccc(Cl)cc2)nc2ccccc21
7,784 s,CC1(C(=O)NCc2ccccc2)CN(S(=O)(=O)c2ccccc2)CC(=O)N1C1CC1 (centres undefined)
8,1110 s,CCCCN1C(=O)C(C)(C(=O)Nc2cc(C)ccc2C)Oc2cccnc21 (centres undefined)
9,568 s,COCC1(O)CCOC2(CCN(Cc3ccc(C)cn3)CC2)C1 (centres undefined)
10,831 s,O=C(Cn1cc(-c2nnco2)c2ccccc21)NCc1ccccc1Cl
11,659 s,O=C(c1ccoc1)N1CCc2c(c(CO)nn2Cc2ccccc2)C1
12,609 s,COc1ccc(C2C(C(=O)NCc3ccccn3)c3cc(OC)c(OC)cc3C(=O)N2C)cc1 (centres undefined)
13,750 s,Cc1cc(C(=O)NCCCc2ccccc2)c2c(=O)n(C)c(=O)n(C)c2n1
14,559 s,CN(C)[C@@H]1CN(C(=O)c2cccc(Cl)c2)C[C@H]1CO
15,886 s,Cc1ccsc1C(=O)Nc1ccc2c(c1)Sc1ncccc1C(=O)N2C(C)C
16,586 s,O=C(C1CCCO1)N1CCN(c2ccc(-n3cccn3)nn2)CC1 (centres undefined)
17,980 s,CCOc1ccc(-n2ccnc(NC(=O)Nc3cccc(OC)c3)c2=O)cc1
18,902 s,O=C(O)CCC(=O)Nc1sc2c(c1C(=O)Nc1ccccc1)CCC2

row,RP-LC retention time,SMILES
1,784 s,CN1C2CCC1CC(OC(c1ccccc1)c1ccccc1)C2 (centres undefined)
2,1070 s,CCc1cccc(C)c1Nc1c(-c2ccc(SC)cc2)nc2cnccn12
3,944 s,Cc1[nH]c(C(=O)N2CCCC(C(=O)NC3CCCCCC3)C2)c(C)c1C(=O)OC(C)C (centres undefined)
4,594 s,Cc1ccc(CN2CCC(CNC(=O)C3CCCN(c4nccc(C)n4)C3)CC2)cc1 (centres undefined)
5,740 s,O=C(CN1CCN(c2ccccc2)CC1)Nc1nc(-c2ccccc2)cs1
6,1150 s,Cc1sc(-c2noc(C(C)C)n2)cc1S(=O)(=O)N1CCC(C(=O)N2CCC(C)CC2)CC1
7,898 s,Cc1cccc(S(=O)(=O)N2CC=C(c3cn(C)c4ncccc34)CC2)c1
8,809 s,Cc1nc(-c2ccc(OC3CCN(C(=O)NCC(C)C)C3)cc2)no1 (centres undefined)
9,807 s,COc1ccc(C)cc1NC(=O)NCCn1c(C(F)(F)F)nc2cccnc21
10,846 s,CCOc1ccc(-c2[nH]ncc2CNS(=O)(=O)Cc2ccccc2Cl)cc1
11,580 s,CN1CCN(CCNC(=O)c2ccc3ccnc(N4CCN(c5ccc(F)cc5)CC4)c3c2)CC1
12,702 s,Cn1nc(C(=O)Nc2ccccc2)c2c1CCN(C(=O)NCC1CCCO1)C2 (centres undefined)
13,749 s,CNC(=O)C1CN(C(=O)c2cccc(C(F)(F)F)c2)CC12CCCC2 (centres undefined)
14,846 s,O=C1NCCCCCCN(C(=O)Nc2ccccc2F)[C@H]2CCCC[C@@H]12
15,612 s,Cc1ccc(S(=O)(=O)N2C(=O)CCC2C(=O)N2CCN(c3ccccn3)CC2)cc1 (centres undefined)
16,766 s,O=C(Cc1nnc(-c2cnccn2)o1)Nc1ccc(C(F)(F)F)cc1
17,714 s,Cc1ccc(NC(=O)CCC2CCN(c3cc(NC4CC4)ncn3)CC2)c(C)c1

# The remaining lines, values behind:
row,SMILES,RP-LC retention time
1,COc1ccc(-c2nc3cnc(Br)cn3c2Nc2ccc(OC)c(OC)c2)cc1,852 s
2,Cn1cnc(S(=O)(=O)N2CC(Oc3ccccc3-c3nc(C4CC4)no3)C2)c1,794 s
3,CCc1cc(C(=O)Nc2ccc(OC)c(OC)c2)nc2cc(-c3ccco3)nn12,1030 s
4,O=C(Cn1c(=O)cnc2cc(C(=O)NC3CCCC3)ccc21)NCc1ccc(F)cc1F,721 s
5,Cc1ccc(CC(=O)Nc2ccc(-c3nc(Cn4cccn4)c(C)o3)cc2)cc1,880 s
6,Cc1ccc(N2CC(c3nc(-c4ccc5c(c4)OCO5)no3)CC2=O)c(C)c1 (centres undefined),911 s
7,Cc1cc(OCC(=O)NCCn2nc(-c3cccnc3)ccc2=O)ccc1Cl,617 s
8,O=C(Nc1cccnc1)c1ccc(CNS(=O)(=O)c2cccc(C(F)(F)F)c2)cc1,635 s
9,CCOc1ccc(-c2noc(Cc3nnc(-c4cccc(Cl)c4)o3)n2)cc1,1140 s
10,CC1CCN(S(=O)(=O)c2ccc(-c3nnc(C(=O)NCCc4ccc(Cl)cc4)o3)cc2)CC1,1160 s
11,COc1cc(-c2noc(Cn3ccnc3)n2)cc(OC)c1OC,604 s
12,CN1C(=O)c2cc(C(=O)NC3CCCC3)nn2CC1(C)C(=O)NCc1ccc(F)cc1 (centres undefined),719 s
13,O=S(=O)(c1ccc(-c2nnc(C3CCCC3)o2)o1)N1CCN(C2CCCCC2)CC1,696 s
14,CC(C)(Oc1ccc(Cl)cc1)C(=O)Nc1c(-c2ccccc2)nc2ccccn12,783 s
15,COc1cc(=O)n2c(c1C(=O)Nc1cccc3c1CCCC3)CCCC2,762 s
16,CCCn1c(CCNC(=O)c2ccc(F)c(F)c2)nc2cccnc21,683 s
17,Cc1cc(N2CCOCC2)nc(N2CCN(S(=O)(=O)c3cc(C(C)C)ccc3C)CC2)n1,803 s
18,CC1CN(C2CCCCC2)c2nc3c(c(=O)n(CC(=O)O)c(=O)n3C)n2C1 (centres undefined),773 s
19,COc1ccc(C)cc1NC(=O)CCCn1cccc1,876 s
20,Cc1cccn2cc(-c3cccc(S(=O)(=O)N4CCCC4)c3)nc12,637 s
21,CCC(=O)Nc1ccc(OCc2cc(C(=O)NC3CCCCC3)no2)cc1,840 s
22,CCCCC(=O)Nc1ccc2nc(N3CCN(c4cccc(C)c4C)CC3)cc(C(=O)O)c2c1,776 s
23,Cc1nn(-c2ccccc2)c2c1N(CC(=O)Nc1ccc(F)cc1F)C(=O)CS2,852 s
24,CCc1ccc(NC(=O)Cc2nnc3cc(-c4nc(C)no4)ccn23)cc1,780 s
25,Cc1ccc2nc(-c3ccc(O)cc3)c(Nc3ccccc3C)n2c1,678 s
26,O=C(CCc1nnc2ccc(N3CCOCC3)nn12)N1CCN(c2ccccn2)CC1,566 s
27,CCOC(=O)c1noc2ncnc(N3CCN(c4ccccc4)CC3)c12,968 s

row,SMILES,RP-LC retention time
1,COc1ccc(CNS(=O)(=O)c2cc(-c3cc(C(F)(F)F)on3)sc2C)cc1,848 s
2,Cc1cccc(-c2noc(-c3nn(CC(=O)NC4CC4)c4ccccc34)n2)c1,1040 s
3,CCN(CC)C(=O)N1CCC(c2noc(-c3ccccc3)n2)C1 (centres undefined),892 s
4,O=C(COCc1nnc(C(=O)Nc2cccc(Cl)c2)s1)NCCc1c[nH]c2ccccc12,930 s
5,O=C(NC1CCCCC1)C1CCCN(C(=O)c2cccc(Cl)c2)C1 (centres undefined),864 s
6,O=C(c1ccc(-c2cccnc2)nc1)N1CCN(c2ccc(Cl)cc2)CC1,746 s
7,Cc1nc2c(c(SCC(=O)Nc3nc(-c4ccccc4)cs3)n1)CCC2,982 s
8,Cc1nc([C@@H]2CN(S(=O)(=O)C(C)C)C[C@H]2C(N)=O)n[nH]1,566 s
9,CCOc1ccccc1NC(=O)N1CCCC1c1cc(C)on1 (centres undefined),870 s
10,CCc1ccc(CNC(=O)C2CCN(c3cnc4nccnc4c3)CC2)cc1,747 s
11,Cc1ccc2cc(CCC(=O)NCCCN3CCCC(C)C3)c(=O)[nH]c2c1 (centres undefined),605 s
12,O=C(CCn1c(=O)oc2ccccc21)Nc1ccc(S(=O)(=O)Nc2nccs2)cc1,650 s
13,COCCN1CC2(CCCC2)N(Cc2cc(C(F)(F)F)ccc2Cl)CC1=O,1060 s
14,COc1cc(OC)c(NS(=O)(=O)c2c(C)sc(C)c2-c2cc(C(F)(F)F)on2)cc1Cl,1170 s
15,O=C(NCCc1csc(-c2cccs2)n1)C1CCN(S(=O)(=O)c2cccs2)CC1,852 s
16,COCc1nc2nccc(-c3ccc(OC)cc3)n2n1,690 s
17,O=C(CCc1nnc(C(=O)Nc2ccccc2)s1)NCCc1c[nH]c2ccc(Cl)cc12,921 s
18,COC(=O)c1sccc1NC(=O)N1CCCn2nc(-c3cccc(Cl)c3)cc2C1,972 s
19,O=c1cc(-c2ccc(Cl)cc2)[nH]c2ccccc12,869 s
20,O=C(CCc1c(-c2ccccc2)nc2ccccn12)NCc1cccc(Br)c1,691 s
21,CC(C)CNC(=O)N1CCCC(c2nn[nH]n2)C1 (centres undefined),617 s
22,COc1ccc(-n2ccnc(NC(=O)Nc3ccc(F)cc3)c2=O)cc1OC,848 s
23,CC(C)(C)c1noc(-c2ccnc(-n3cnc(C(=O)NC4CC4)c3)c2)n1,877 s
24,CN1C(=O)CCCCC1C(=O)N1CCOCC1 (centres undefined),556 s
25,CCN(Cc1ccc(OC)cc1)Cc1cc(=O)n2cc(C)ccc2n1,572 s
26,Cc1ccc(-c2noc(CN3N=NC4C(=O)N(c5ccc(C)c(C)c5)C(=O)C43)n2)cc1C (centres undefined),1140 s
27,COC(=O)C(C)NC(=O)N1CCN(c2nc3ccccc3n(Cc3ccccc3)c2=O)CC1 (centres undefined),869 s
